Measured values from the supplement of paper PMC10307832.

Tests used:
Experiment in all cases: relative viability (nuclei count vs DMSO), 5 days (fraction); higher = more cells survive
[1] = compound: CN1CCC(CC1)OC2=CC(=C(C=C2)NC3=NC=C4C(=N3)N(C(=O)N4C)C5CCCC5)OC [AZ3146] + CC(C)C[C@H](NC(=O)[C@H](Cc1ccccc1)NC(=O)c1cnccn1)B(O)O [Bortezomib] (partner 0.002 µM)
Procedure, shortened: (§1)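 Lung cancer cell lines were seeded in 1536-well plates and dosed by pin tool the next day, with either a single drug or a fixed anchor-drug dose combined with five library-drug doses (not always all listed) spaced in √10 steps. Five days later, one step fixed the cells and stained their nuclei (final 0.05% Triton X-100, 1% formaldehyde, 1 ug/ml Hoechst), and nuclei were counted on 4× images. Relative viability is the nuclei count in treated wells divided by the count in vehicle wells, and each value is the median of duplicate plates.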

[2] = compound: CCOC(=O)CCNc1cc(N2CCc3ccccc3CC2)nc(-c2ccccn2)n1 [GSK-J4] + Cc1cc(Nc2cc(N3CCN(C)CC3)nc(Sc3ccc(NC(=O)C4CC4)cc3)n2)n[nH]1 [Tozasertib] (partner 0.1 µM)
Procedure, shortened: as §1

[3] = compound: CN1CCC(CC1)OC2=CC(=C(C=C2)NC3=NC=C4C(=N3)N(C(=O)N4C)C5CCCC5)OC [AZ3146] + CS(=O)(=O)CCNCc1ccc(-c2ccc3ncnc(Nc4ccc(OCc5cccc(F)c5)c(Cl)c4)c3c2)o1 [Lapatinib] (partner 2 µM)
Procedure, shortened: as §1

[4] = compound: CCOC(=O)CCNc1cc(N2CCc3ccccc3CC2)nc(-c2ccccn2)n1 [GSK-J4] + N=C(N)NC(=N)NCCc1ccccc1 [Phenformin] (partner 250 µM)
Procedure, shortened: as §1

| Cell Line | relative viability ([1]; first compound 0.08 µM) | relative viability ([1]; first compound 0.253 µM) | relative viability ([1]; first compound 0.8 µM) | relative viability ([1]; first compound 2.53 µM) | relative viability ([1]; first compound 8 µM) | relative viability ([2]; first compound 0.5 µM) | relative viability ([2]; first compound 1.581 µM) | relative viability ([2]; first compound 15.81 µM) | relative viability ([2]; first compound 50 µM) | relative viability ([3]; first compound 0.08 µM) | relative viability ([3]; first compound 0.253 µM) | relative viability ([3]; first compound 0.8 µM) | relative viability ([3]; first compound 2.53 µM) | relative viability ([3]; first compound 8 µM) | relative viability ([4]; first compound 0.5 µM) | relative viability ([4]; first compound 1.581 µM) | relative viability ([4]; first compound 5 µM) | relative viability ([4]; first compound 15.81 µM) | relative viability ([4]; first compound 50 µM) | relative viability ([2]; first compound 5 µM) |
| --- | --- | --- | --- | --- | --- | --- | --- | --- | --- | --- | --- | --- | --- | --- | --- | --- | --- | --- | --- | --- |
| HCC-44 | 0.875 | 0.908 | 0.881 | 0.909 | 0.884 | 0.809 | 0.803 | 0.646 | 0.688 | 0.907 | 0.953 | 0.999 | 1.01 | 0.971 | 0.253 | 0.222 | 0.134 | 0.124 | 0.137 | – |
| HCC-78 | – | 0.471 | 0.271 | 0.558 | 0.447 | 0.426 | 0.401 | 0.379 | 0.348 | – | 0.488 | 0.762 | 0.864 | 0.574 | 0.87 | 0.731 | 0.946 | 0.588 | 0.528 | 0.494 |
| HCC-366 | 0.983 | 1.05 | 1.08 | 1.06 | 0.735 | 0.138 | 0.0869 | 0.083 | 0.0821 | 1 | 1.1 | 1.01 | 0.964 | 0.693 | 0.574 | 0.579 | – | 0.482 | 0.59 | – |
| HCC-827 | 0.933 | 1.07 | 1.11 | 1.09 | 1.09 | 0.408 | 0.434 | 0.4 | 0.362 | 0.155 | 0.191 | 0.175 | 0.237 | 0.191 | 0.366 | 0.383 | 0.426 | 0.355 | 0.398 | 0.44 |
| HOP-62 | 0.401 | 0.967 | 0.694 | 0.851 | 0.44 | 0.344 | 0.335 | 0.339 | 0.24 | 0.958 | 0.975 | 0.941 | 0.846 | 1.06 | 0.612 | 0.548 | 0.558 | 0.665 | 0.528 | 0.358 |
| LC-2-ad | 0.857 | 1.05 | 1.03 | 0.996 | 0.668 | 0.429 | 0.377 | 0.399 | 0.36 | 0.828 | 1.04 | 0.907 | 0.914 | 0.631 | 0.635 | 0.499 | 0.495 | 0.568 | 0.432 | 0.41 |
| LCLC-97TM1 | 0.53 | 0.792 | 0.569 | 0.973 | 0.172 | 0.322 | 0.187 | 0.146 | 0.165 | – | – | 1.2 | 0.861 | 0.289 | 0.369 | 0.327 | 0.397 | 0.339 | 0.264 | 0.226 |
| LOU-NH91 | 1.02 | 0.489 | 0.533 | 0.478 | 0.51 | 0.654 | 0.502 | 0.619 | 0.644 | 0.969 | 0.739 | 0.692 | 0.768 | 0.777 | 0.716 | 0.69 | 0.561 | 0.647 | 0.802 | 0.438 |
| LU99A | 0.91 | 1.16 | 1.21 | 1.1 | 1.18 | 0.233 | 0.276 | 0.281 | 0.253 | 0.864 | 1.15 | 1.06 | 0.954 | 0.995 | 0.866 | 0.671 | – | 0.757 | 0.554 | – |
| LXF-289 | 0.996 | 1.02 | 0.978 | 1.01 | 0.908 | 0.198 | 0.154 | 0.166 | 0.204 | 0.846 | 0.924 | 0.889 | 0.907 | 0.908 | 0.506 | 0.445 | 0.408 | 0.53 | 0.515 | 0.132 |
| NCI-H23 | 1.15 | 1.08 | 1.21 | 1.11 | 0.876 | 0.333 | 0.397 | 0.281 | 0.249 | 1.11 | 1.22 | 1.14 | 1.31 | 0.915 | 0.71 | 0.723 | 0.627 | 0.648 | 0.671 | 0.373 |
| NCI-H322M | 1.29 | 1.18 | 1.18 | 1.29 | 1.18 | 0.457 | 0.393 | 0.442 | 0.507 | 0.72 | 0.593 | 0.609 | 0.608 | 0.584 | 0.788 | 0.553 | 0.806 | 0.729 | 0.545 | 0.484 |
| NCI-H460 | 1.14 | 0.92 | 1.02 | 0.97 | 0.543 | 0.41 | 0.387 | 0.294 | 0.283 | 0.877 | 1.11 | 0.937 | 0.817 | 0.656 | 0.515 | 0.365 | 0.361 | 0.472 | 0.398 | 0.344 |
| NCI-H520 | 0.355 | 0.677 | 0.614 | 0.673 | 0.583 | 0.439 | – | 0.39 | 0.425 | 0.797 | 0.84 | 0.838 | 0.965 | 0.576 | 0.582 | 0.478 | 0.46 | 0.303 | 0.445 | 0.497 |
| NCI-H596 | 0.961 | 1.05 | – | 1.07 | 0.935 | 0.953 | 0.891 | 0.847 | 0.691 | 1.05 | 0.94 | 1.21 | 1.08 | 0.979 | 0.821 | 0.67 | 0.626 | 0.633 | 0.732 | 0.971 |
| NCI-H647 | 0.918 | 0.941 | 0.996 | 1.21 | 0.405 | 0.315 | 0.192 | 0.28 | 0.155 | 1.05 | 1.12 | 1.12 | 1.25 | 0.792 | 0.618 | 0.398 | 0.415 | 0.498 | 0.532 | 0.178 |
| NCI-H650 | 0.519 | 0.691 | 0.762 | 0.999 | 0.897 | 0.677 | 0.727 | 0.526 | 0.459 | 0.804 | 0.844 | 0.667 | 1.02 | 0.973 | 0.455 | 0.419 | 0.322 | 0.422 | 0.423 | 0.432 |
